Laboratory results taken from PubChem BioAssay (NCI).
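Growth conditions: 96-well plates. Treatment: test compound, 48 hours, 5 concentrations. Analysis: linear interpolation between bracketing concentrations; unreached endpoints set to highest concentration. At the TGI there is no net growth.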

What was measured:
Assay in all cases: NCI tumour cell line growth inhibition, 48 h
[1] = tested on: PC-3 prostate
[2] = tested on: NCI-H23 lung
[3] = tested on: OVCAR-8 ovarian
[4] = tested on: RXF 393 renal
[5] = tested on: OVCAR-3 ovarian
[6] = tested on: EKVX NSCLC
[7] = tested on: MALME-3M melanoma
[8] = tested on: NCI-H226 lung
[9] = tested on: UO-31 renal
[10] = tested on: HT29 colon
[11] = tested on: NCI/ADR-RES ovarian
[12] = tested on: SK-OV-3 ovarian
[13] = tested on: ACHN renal
[14] = tested on: NCI-H460 lung
[15] = tested on: UACC-257 melanoma
[16] = tested on: HS 578T breast
[17] = tested on: SN12C renal
[18] = tested on: SK-MEL-2 melanoma
[19] = tested on: SR leukemia
[20] = tested on: MCF7 breast
[21] = tested on: BT-549 breast
[22] = tested on: K-562 leukemia
[23] = tested on: IGROV1 ovarian
[24] = tested on: U251 CNS
[25] = tested on: RPMI-8226 leukemia
[26] = tested on: OVCAR-4 ovarian
[27] = tested on: HL-60(TB) leukemia
[28] = tested on: KM12 colon
[29] = tested on: HOP-92 NSCLC
[30] = tested on: SNB-19 CNS
[31] = tested on: A498 renal
[32] = tested on: LOX IMVI melanoma
[33] = tested on: 786-0 renal
[34] = tested on: COLO 205 colon
[35] = tested on: SW-620 colon
[36] = tested on: T-47D breast
[37] = tested on: HCT-116 colon
[38] = tested on: M14 melanoma
[39] = tested on: SK-MEL-5 melanoma
[40] = tested on: DU-145 prostate
[41] = tested on: MDA-N
[42] = tested on: MDA-MB-231 breast
[43] = tested on: HOP-62 NSCLC
[44] = tested on: HCT-15 colon
[45] = tested on: UACC-62 melanoma
[46] = tested on: CAKI-1 renal
[47] = tested on: SF-539 CNS
[48] = tested on: MDA-MB-435
[49] = tested on: SK-MEL-28 melanoma
[50] = tested on: A549 NSCLC
[51] = tested on: SNB-75 CNS
[52] = tested on: SF-268 CNS
[53] = tested on: HCC-2998 colon
[54] = tested on: MOLT-4 leukemia
[55] = tested on: SF-295 CNS
[56] = tested on: OVCAR-5 ovarian
[57] = tested on: TK-10 renal
[58] = tested on: NCI-H522 lung
[59] = tested on: CCRF-CEM leukemia

COC(=O)C1=C(O)C(C(=O)OC)[C@]2(O)[C@H](C(=O)OC)[C@H]1C[C@@H](c1c(Cl)cccc1Cl)[C@H]2C(=O)OC (stereo not given in full)
TGI [1]: 10.5 µM
TGI [2]: 5.44 µM
TGI [3]: 3.66 µM
TGI [4]: 3.92 µM
TGI [5]: 7.87 µM
TGI [6]: 18.4 µM
TGI [7]: 5.25 µM
TGI [8]: 4.87 µM
TGI [9]: 3.01 µM
TGI [10]: 7.16 µM
TGI [11]: 7.01 µM
TGI [12]: 14.2 µM
TGI [13]: 4.86 µM
TGI [14]: 6.55 µM
TGI [15]: 6.08 µM
TGI [16]: 27.3 µM
TGI [17]: 5.2 µM
TGI [18]: 3.33 µM
TGI [19]: 4.87 µM
TGI [20]: 12.3 µM
TGI [21]: 6.99 µM
TGI [22]: 6.92 µM
TGI [23]: 5.99 µM
TGI [24]: 2.99 µM
TGI [25]: 3.38 µM
TGI [26]: 30.4 µM
TGI [27]: 18.7 µM
TGI [28]: 8.6 µM
TGI [29]: 14 µM
TGI [30]: 5.13 µM
TGI [31]: 4.15 µM
TGI [32]: 3.69 µM
TGI [33]: 3.48 µM
TGI [34]: 4.37 µM
TGI [35]: 11 µM
TGI [36]: 23 µM
TGI [37]: 3.42 µM
TGI [38]: 2.88 µM
TGI [39]: 3.02 µM
TGI [40]: 8.2 µM
TGI [41]: 3.02 µM
TGI [42]: 12.9 µM
TGI [43]: 10.8 µM
TGI [44]: 4.49 µM
TGI [45]: 5.56 µM
TGI [46]: 11.3 µM
TGI [47]: 3.78 µM
TGI [48]: 3.3 µM
TGI [49]: 7.55 µM
TGI [50]: 6.21 µM
TGI [51]: 8.7 µM
TGI [52]: 12.9 µM
TGI [53]: 3.03 µM
TGI [54]: 5.31 µM
TGI [55]: 7.57 µM

Nc1[nH]c(=S)nc2snnc12
TGI [1]: > 100 µM
TGI [2]: > 100 µM
TGI [3]: > 100 µM
TGI [4]: > 100 µM
TGI [5]: > 100 µM
TGI [7]: > 100 µM
TGI [8]: > 100 µM
TGI [9]: > 100 µM
TGI [10]: > 100 µM
TGI [11]: > 100 µM
TGI [12]: > 100 µM
TGI [13]: > 100 µM
TGI [14]: > 100 µM
TGI [15]: > 100 µM
TGI [16]: > 100 µM
TGI [17]: > 100 µM
TGI [18]: > 100 µM
TGI [19]: > 100 µM
TGI [20]: > 100 µM
TGI [21]: > 100 µM
TGI [22]: > 100 µM
TGI [23]: > 100 µM
TGI [25]: > 100 µM
TGI [27]: > 100 µM
TGI [28]: > 100 µM
TGI [29]: > 100 µM
TGI [30]: > 100 µM
TGI [31]: > 100 µM
TGI [32]: > 100 µM
TGI [56]: > 100 µM
TGI [33]: > 100 µM
TGI [34]: > 100 µM
TGI [35]: > 100 µM
TGI [36]: > 100 µM
TGI [37]: > 100 µM
TGI [57]: > 100 µM
TGI [39]: > 100 µM
TGI [58]: > 100 µM
TGI [40]: > 100 µM
TGI [41]: > 100 µM
TGI [42]: > 100 µM
TGI [43]: > 100 µM
TGI [44]: > 100 µM
TGI [45]: > 100 µM
TGI [46]: > 100 µM
TGI [47]: > 100 µM
TGI [48]: > 100 µM
TGI [59]: > 100 µM
TGI [49]: > 100 µM
TGI [50]: > 100 µM
TGI [51]: > 100 µM
TGI [52]: > 100 µM
TGI [53]: > 100 µM
TGI [54]: > 100 µM
TGI [55]: > 100 µM
